Experimental data as given in patent US7303881B2, “Antigen delivery compositions and methods of use” (priority 2004, dated 2007).

Assays:
DC 2.4 cells = experiment: Expression of CD80 on DC 2.4 cells, cationic lipid head group and chain length; assay type: cell-based
Description: Both hydrophilic head and the lipophilic tail of the lipids have significant effect on this ability. […] The effect of the hydrocarbon tail region of the lipids on the DC cell stimulation also was systematically investigated (FIG. 8).

tumor = experiment: In vivo tumor therapy with LPD/E7 and formulations of LPD components; parameters: species or system mice; conditions: 20 days after treatment; tumor injected 6 days before onset of treatment
Description: FIG. 9. Tumor growth kinetics on mice treated with LPD/E7 and other different formulations.
It is speculated that by condensing DNA, protamine helped to bring DNA inside the liposomes. E7 peptide was thought to bind to DNA via electrostatic interaction (Dileo et al., 2003). […] On the other hand, E7might only be loosely bound in the LD/E7 particles.

TC-1 cells = experiment: Metastatic tumor model (i.p. TC-1 cells) after vaccination, survival and TC-1 rechallenge; assay type: in vivo, mice; conditions: 10 μg E7 peptide in PBS days 0 and 5; 1×10^6 TC-1 cells day 10
[1] = system: EL4 cells pulsed with E7 peptide; experiment: Chromium release CTL assay after LPD/E7 vaccination; assay type: in vivo, C57BL/6 mice; conditions: 20 μg E7 peptide, IV and SC, days 0 and 5
Procedure: For comparison, mice were injected with 20 μg E7 peptide in PBS or encapsulated in SL liposomes. Five days after the final vaccination, splenocytes were collected, and used as effector cells in a chromium release assay. Consistent with previous reports, antigen containing SL liposomes induced significant levels of CTL activity (61% specific lysis) following SC injection only.
Cytolytic lymphocyte activity was measured using standard ^51Cr-release assays. Splenocytes were collected and cultured in RPMI supplemented with 10% FBS, 50 U/ml penicillin/streptomycin, 2 mM L-glutamine, 1 mM sodium pyruvate, 2 mM nonessential amino acids, 40 U/ml IL2, and 200 ng/ml MHC class I restricted E7 peptide for 4 days. Effector cells were plated into 96-well plates at various effector-to-target (E:T) cell ratios. Targets used were either EL4 cells pulsed with E7 peptide or non-pulsed EL4 cells. Targets were labeled with 200 μCi ^51Cr (NEN Life Sciences, Boston Mass.) for 18 h at 37° C. Before mixing with effectors, the targets were washed two times with medium, and resuspended at 2×10^5 cells/ml. […] Specific lysis was calculated using the following equation: % specific lysis=(experimental release−spontaneous release)/(maximum release−spontaneous release)×100. […]

Molecule | Stimulation of CD 80 expression (DC 2.4 cells) | other results
CCCCCCCCCCCC(=O)OC[C@H](COP(=O)(OCC)OCC[N+](C)(C)C)OC(=O)CCCCCCCCCCC (stereo partly drawn) [DLEPC-12:0, 1,2-dilauroyl-sn-glycero-3-ethylphosphocholine] | more potent | 
CCCCCCCCCCCCCC(=O)OCC(COP(=O)(OCC)OCC[N+](C)(C)C)OC(=O)CCCCCCCCCCCCC (stereo not drawn) [DMEPC-14:0, 1,2-dimyristoyl-sn-glycero-3-ethylphosphocholine] | more potent | 
CCCCCCCC/C=C\CCCCCCCC(=O)OC[C@@H](COP(=O)(OCC)OCC[N+](C)(C)C)OC(=O)CCCCCCC/C=C\CCCCCCCC (stereo partly drawn) [DOEPC-18:1, 1,2-dioleoyl-sn-glycero-3-ethylphosphocholine] | more potent | 
CCCCCCCCCCCCCCCC(=O)OCC(C[N+](C)(C)C)OC(=O)CCCCCCCCCCCCCCC (stereo not drawn) [DPTAP-16:0, 1,2-palmitoyl-3-trimethylammonium propane] | much lower expression of CD80 | 
CCCCCCCCCCCCCCCCCC(=O)OCC(C[N+](C)(C)C)OC(=O)CCCCCCCCCCCCCCCCC (stereo not drawn) [DSTAP-18:0, 1,2-distearoyl-3-trimethylammonium propane] | much lower expression of CD80 | 
CCCCCCCCCCCCOS(=O)(=O)[O-].[Na+] [SDS, sodium dodecyl sulfate] | could not activate | 
E7 peptide: MHC class I restricted peptide from the HPV 16 E7 protein (aa 49 to 57, RAHYNIVTF), given in PBS |  | Tumor growth after treatment (tumor): kept growing rapidly; mice surviving beyond 20 days after TC-1 cell injection (TC-1 cells): 20%; CTL activity [1]: no CTL induction
